Measurements: publication PMC4994406, “Molecular cloning and characterization of a flavonoid-O-methyltransferase with broad substrate specificity and regioselectivity from Citrus depressa” (BMC Plant Biology, 2016)

How the values were obtained:
[1] = target: T1, CdFOMT5 (Citrus depressa, UniProt A0A125T1T5); experiment: HPLC of methylated product; type: biochemical; details: 500 uM SAM, 100 uM substrate, 50 mM potassium phosphate pH 7.0, 30 °C, 1 h
T1 construct: gene FOMT5; full-length cDNA from fruit pericarp, C-terminal 6x His tag kept, pET21b(+) BamHI/SalI, E. coli BL21(DE3), Ni-Sepharose
T1 sequence (A0A125T1T5 1-353): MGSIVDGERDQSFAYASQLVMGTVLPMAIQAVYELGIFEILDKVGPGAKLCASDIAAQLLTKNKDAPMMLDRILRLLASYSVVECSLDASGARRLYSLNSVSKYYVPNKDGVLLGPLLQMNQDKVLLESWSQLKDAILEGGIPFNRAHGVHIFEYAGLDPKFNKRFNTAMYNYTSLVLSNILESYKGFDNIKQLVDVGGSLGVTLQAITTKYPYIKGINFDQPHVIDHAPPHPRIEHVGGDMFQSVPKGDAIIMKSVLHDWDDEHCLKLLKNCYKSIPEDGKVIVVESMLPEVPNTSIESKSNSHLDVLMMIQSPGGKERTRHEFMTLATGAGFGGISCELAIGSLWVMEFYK

[2] = target: T1, CdFOMT5; experiment: HPLC and LC-MS of O-methylated products; type: biochemical; details: 500 uM SAM, 100 uM substrate, 50 mM potassium phosphate pH 7.0, 30 °C, 1 h

SMILES	HPLC of methylated product [1]	HPLC and LC-MS of O-methylated products [2]
O=c1c(O)c(-c2ccccc2)oc2ccccc12 [3-hydroxyflavone]	the highest activity was observed for 3-hydroxyflavone (flavonol) based on the peak area	
O=c1c(O)c(-c2ccc(O)c(O)c2)oc2cc(O)cc(O)c12 [S, quercetin]		several peaks corresponding to O-methylated products were detected by HPLC analysis
